According to ChEMBL document CHEMBL1136498, “Ureas of 5-aminopyrazole and 2-aminothiazole inhibit growth of gram-positive bacteria” (Bioorg Med Chem Lett, 2003):
In brackets after ≈: the same amount, converted by molar mass. Activity calls are given as the source filed them. No cut-off for these calls is given here.

Tests used:
Staphylococcus aureus [1] = experiment: Concentration that inhibits 50% growth of methicillin resistant Staphylococcus aureus in the microdilution wells; type: functional, organism-based
Mus musculus [2] = experiment: In vivo efficacy versus methicillin resistant Staphylococcus aureus in mice administered sc at 2mg/kg, expressed as percent survival; type: functional
Mus musculus [3] = experiment: In vivo efficacy versus methicillin resistant Staphylococcus aureus in mice administered sc at 20 mg/kg, expressed as percent survival; type: functional; details: route subcutaneous
Staphylococcus aureus [4] = experiment: Minimal inhibitory concentration for Staphylococcus aureus bacteria (ATCC 9604 SV) was determined by broth microdilution methodology; type: functional
Mus musculus [5] = experiment: In vivo efficacy versus methicillin resistant Staphylococcus aureus in mice administered sc at 2x2mg/kg, expressed as percent survival; type: functional
Mus musculus [6] = experiment: In vivo efficacy versus methicillin resistant Staphylococcus aureus in mice administered sc at 2x20mg/kg, expressed as percent survival; type: functional
Staphylococcus aureus [7] = experiment: Minimal inhibitory concentration for Staphylococcus aureus bacteria (ATCC 9604 SV) was determined by broth microdilution methodology; IA=Inactive; type: functional, organism-based
Staphylococcus aureus [8] = experiment: Concentration that inhibits 50% growth of methicillin resistant Staphylococcus aureus in the microdilution wells; IA=Inactive; type: functional, organism-based

| SMILES | IC50 (Staphylococcus aureus [1]) [nM] | MIC (Staphylococcus aureus [4]) [µg/mL] | other results |
| --- | --- | --- | --- |
| O=C(Nc1cccc(Br)c1)Nc1nc(-c2ccc(Br)cc2)cs1 | 543 | – | – |
| O=C(Nc1cc(C(F)(F)F)cc(C(F)(F)F)c1)Nc1nc(-c2ccc(Br)cc2)cs1 | 133 | – | – |
| O=C(Nc1cc(Cl)cc(Cl)c1)Nc1cc(-c2ccccc2)nn1-c1ccc(C(F)(F)F)cc1 | 81 | 12.3 (≈ 25 µM) | survival at 2 mg/kg (Mus musculus [2]): 0%; survival at 20 mg/kg (Mus musculus [3]): 12.5% |
| O=C(Nc1ccc(F)c(C(F)(F)F)c1)Nc1nc(-c2ccc(F)c(F)c2)cs1 | 180 | < 0.626 | survival at 2 mg/kg (Mus musculus [2]): 0%; survival at 20 mg/kg (Mus musculus [3]): 0% |
| COc1ccc(OC)c(-c2csc(NC(=O)Nc3cc(C(F)(F)F)cc(C(F)(F)F)c3)n2)c1 | > 5000 | – | – |
| Cc1sc(NC(=O)Nc2cc(C(F)(F)F)cc(C(F)(F)F)c2)nc1-c1ccc(Br)cc1 | 838 | – | – |
| COc1cc(NC(=O)Nc2nc(-c3ccc(Cl)cc3)cs2)cc(OC)c1 | > 5000 | – | – |
| O=C(Nc1cc(Cl)cc(Cl)c1)Nc1cc(-c2cccs2)nn1-c1ccc(Br)cc1 | 71 | 0.847 (≈ 1.67 µM) | survival at 2 mg/kg (Mus musculus [2]): 0%; survival at 20 mg/kg (Mus musculus [3]): 25% |
| O=C(Nc1cc(C(F)(F)F)cc(C(F)(F)F)c1)Nc1cc(-c2ccncc2)nn1-c1ccc(C(F)(F)F)cc1 | 214 | 1.68 (≈ 3 µM) | survival at 2 mg/kg (Mus musculus [2]): 25%; survival at 20 mg/kg (Mus musculus [3]): 25%; Survival (Mus musculus [5]): 0%; Survival (Mus musculus [6]): 17% |
| Cc1cc(C)cc(NC(=O)Nc2nc(-c3ccc(Cl)cc3)cs2)c1 | > 5000 | – | – |
| COc1ccc(-c2csc(NC(=O)Nc3cc(C(F)(F)F)cc(C(F)(F)F)c3)n2)c(OC)c1 | > 5000 | – | – |
| O=C(Nc1cc(C(F)(F)F)cc(C(F)(F)F)c1)Nc1cc(-c2ccccc2)nn1-c1ccc(C(F)(F)F)cc1 | 54 | < 0.838 | survival at 2 mg/kg (Mus musculus [2]): 0%; survival at 20 mg/kg (Mus musculus [3]): 0% |
| O=C(Nc1ccc(Cl)c(C(F)(F)F)c1)Nc1cc(-c2ccccc2)nn1-c1ccc(C(F)(F)F)cc1 | 96 | < 0.787 | – |
| CC(C)(C)c1cc(NC(=O)Nc2cc(Cl)cc(Cl)c2)n(-c2ccc(Br)cc2)n1 | 132 | < 0.723 | survival at 2 mg/kg (Mus musculus [2]): 0%; survival at 20 mg/kg (Mus musculus [3]): 0% |
| Cc1cc(C)cc(NC(=O)Nc2cc(-c3ccccc3)nn2-c2ccc(C(F)(F)F)cc2)c1 | – | – | MIC (Staphylococcus aureus [7]): inactive; IC50 (Staphylococcus aureus [8]): Not Active |
| O=C(NCc1cccc(Cl)c1)Nc1nc(C2CCCC2)cs1 | – | 8.4 (≈ 25 µM) | Survival (Mus musculus [5]): 25%; Survival (Mus musculus [6]): 25% |
| CCOC(=O)c1cc(NC(=O)Nc2cc(C(F)(F)F)cc(C(F)(F)F)c2)n(-c2ccc(Br)cc2)n1 | 3100 | > 14.1 | Survival (Mus musculus [5]): 0%; Survival (Mus musculus [6]): 33% |
| O=C(Nc1cc(C(F)(F)F)cc(C(F)(F)F)c1)Nc1nc(CCc2ccccc2)cs1 | 367 | 23 (≈ 50.1 µM) | – |

| SMILES | IC50 (Staphylococcus aureus [1]) [nM] | MIC (Staphylococcus aureus [4]) [µg/mL] | other results |
| --- | --- | --- | --- |
| O=C(Nc1nc(-c2ccc(Cl)cc2)cs1)Nc1c(Cl)cc(Cl)cc1Cl | 927 | – | – |
| O=C(Nc1cc(C(F)(F)F)cc(C(F)(F)F)c1)Nc1nc(-c2cccs2)cs1 | 259 | 1.31 (≈ 3 µM) | – |
| COCCN(CCOC)Cc1cc(NC(=O)Nc2cc(C(F)(F)F)cc(C(F)(F)F)c2)n(-c2ccc(Br)cc2)n1 | 1560 | 16 (≈ 25.1 µM) | survival at 2 mg/kg (Mus musculus [2]): 25%; survival at 20 mg/kg (Mus musculus [3]): 25%; Survival (Mus musculus [5]): 0%; Survival (Mus musculus [6]): 33% |
| CC(C)(C)c1csc(NC(=O)NCc2cccc(Cl)c2)n1 | – | 8.1 (≈ 25 µM) | Survival (Mus musculus [5]): 25%; Survival (Mus musculus [6]): 50% |
| Cc1cc(NC(=O)Nc2cc(C(F)(F)F)cc(C(F)(F)F)c2)n(-c2ccc(Br)cc2)n1 | 268 | < 0.761 | – |
| Cc1ccccc1NC(=O)Nc1cc(-c2ccccc2)nn1-c1ccc(C(F)(F)F)cc1 | – | – | MIC (Staphylococcus aureus [7]): inactive; IC50 (Staphylococcus aureus [8]): Not Active |
| CN[C@H](CC(C)C)C(=O)N[C@H]1C(=O)N[C@@H](CC(N)=O)C(=O)N[C@H]2C(=O)N[C@H]3C(=O)N[C@H](C(=O)N[C@H](C(=O)O)c4cc(O)cc(O)c4-c4cc3ccc4O)[C@H](O)c3ccc(c(Cl)c3)Oc3cc2cc(c3O[C@@H]2O[C@H](CO)[C@@H](O)[C@H](O)[C@H]2O[C@H]2C[C@](C)(N)[C@H](O)[C@H](C)O2)Oc2ccc(cc2Cl)[C@H]1O [VANCOMYCIN] | 839 | 0.75 (≈ 0.518 µM) | Survival (Mus musculus [5]): 25%; Survival (Mus musculus [6]): 100% |
| O=C(Nc1cc(Cl)cc(Cl)c1)Nc1cc(-c2ccccc2)nn1-c1ccc(Cl)cc1 | 148 | > 22.9 | survival at 2 mg/kg (Mus musculus [2]): 25%; survival at 20 mg/kg (Mus musculus [3]): 25% |
| O=C(Nc1ccc(SC(F)(F)F)cc1)Nc1nc(-c2ccc(F)c(F)c2)cs1 | 134 | < 0.647 | – |
| O=C(Nc1cc(C(F)(F)F)cc(C(F)(F)F)c1)Nc1c(-c2ccccc2)cnn1-c1ccc(C(F)(F)F)cc1 | 330 | – | survival at 2 mg/kg (Mus musculus [2]): 0%; survival at 20 mg/kg (Mus musculus [3]): 0% |
| O=C(Nc1ccc(C(F)(F)F)cc1Cl)Nc1cc(-c2ccccc2)nn1-c1ccc(C(F)(F)F)cc1 | – | – | MIC (Staphylococcus aureus [7]): inactive; IC50 (Staphylococcus aureus [8]): Not Active |
| O=C(Nc1nc(-c2ccc(Cl)cc2)cs1)Nc1ccc(Br)cc1C(F)(F)F | 4710 | – | – |
| O=C(Nc1ccccc1-c1ccccc1)Nc1cc(-c2ccccc2)nn1-c1ccc(C(F)(F)F)cc1 | – | – | MIC (Staphylococcus aureus [7]): inactive; IC50 (Staphylococcus aureus [8]): Not Active |
| CCOC(=O)c1cnn(-c2ccc(Br)cc2)c1NC(=O)Nc1cc(C(F)(F)F)cc(C(F)(F)F)c1 | 261 | < 0.848 | – |
| O=C(Nc1cc(C(F)(F)F)cc(C(F)(F)F)c1)Nc1cc(CO)nn1-c1ccc(Br)cc1 | 4240 | 6.54 (≈ 12.5 µM) | Survival (Mus musculus [5]): 33%; Survival (Mus musculus [6]): 33% |
| O=C(Nc1cc(C(F)(F)F)cc(C(F)(F)F)c1)Nc1nc(CCCO)cs1 | 2070 | – | – |
| O=C(NCc1ccc(Cl)c(Cl)c1)Nc1nc(-c2ccc(Br)cc2)cs1 | – | 11.4 (≈ 24.9 µM) | – |
